In patent publication US6974870B2, “Substituted 3-amino-thieno [2,3-b]pyridine-2-carboxylic acid amide compounds and processes for preparing and their uses” (Boehringer Ingelheim Phamaceuticals, Inc., priority 2002, dated 2005):

molecular target: T1, human IKKβ (Homo sapiens, UniProt O14920); experiment: IKKβ kinase inhibition assay (phosphorylation of IκBα substrate, 33P-ATP); format: biochemical; details: flag-tagged human IKKβ 0.9 μg/ml, GST-IκBα (1-54) 53 μg/ml, 250 nM ATP, 1 hour at 25° C.
T1 construct: FLAG (N)
T1 sequence (O14920 1-756): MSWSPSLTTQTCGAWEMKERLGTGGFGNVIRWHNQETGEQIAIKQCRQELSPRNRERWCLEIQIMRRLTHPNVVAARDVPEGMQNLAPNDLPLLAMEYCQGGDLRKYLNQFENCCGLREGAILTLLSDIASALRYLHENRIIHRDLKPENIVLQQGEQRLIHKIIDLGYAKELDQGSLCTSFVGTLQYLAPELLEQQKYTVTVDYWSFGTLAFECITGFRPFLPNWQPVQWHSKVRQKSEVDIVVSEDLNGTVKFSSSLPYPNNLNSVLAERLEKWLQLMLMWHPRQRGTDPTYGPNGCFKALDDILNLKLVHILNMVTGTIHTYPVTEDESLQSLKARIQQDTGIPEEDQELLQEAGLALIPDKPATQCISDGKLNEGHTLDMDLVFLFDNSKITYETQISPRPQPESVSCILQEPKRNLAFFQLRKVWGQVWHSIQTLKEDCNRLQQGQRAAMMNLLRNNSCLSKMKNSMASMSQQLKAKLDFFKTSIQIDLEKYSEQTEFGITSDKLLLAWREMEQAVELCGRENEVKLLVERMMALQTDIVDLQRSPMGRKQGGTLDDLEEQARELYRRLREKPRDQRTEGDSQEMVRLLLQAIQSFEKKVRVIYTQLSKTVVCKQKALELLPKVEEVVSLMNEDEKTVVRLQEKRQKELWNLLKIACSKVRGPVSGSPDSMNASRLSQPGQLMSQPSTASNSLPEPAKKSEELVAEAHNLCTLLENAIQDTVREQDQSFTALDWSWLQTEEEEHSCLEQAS
Experimental: The inhibition of IKKα and IKKβ by the compounds of the present invention was determined with the following assay that measures the phosphorylation of the IκBα substrate by the respective kinases. The enzymes used in the assay were N-terminally flag-tagged versions of the human IKKβ or IKKα and the substrate was a GST fusion protein with IκBα (amino acids 1-54).
The reaction mixtures (60 μl) contained 20 mM HEPES pH 7.5, 10 mM MgCl2, 2 mM MnCl2, 100 mM NaCl, 100 μM Na3VO4, 20 mM β-glycerophosphate, 1 mM DTT, 2% DMSO, 250 nM ATP, 0.4 nM [^33P]ATP (specific activity, 3000 Ci/mmol), IκBα substrate, IKK enzyme and test compound. The reaction mixtures contained either 3.6 μg/ml IKKα and 245 μg/ml IκBα or 0.9 μg/ml IKKβ and 53 μg/ml IκBα.
Reactions were initiated by adding a solution of IκBα substrate and ATP to polypropylene plates containing IKK enzyme that was pre-incubated for 5 minutes with test compound. Then the reaction mixtures were incubated for 1 hour at 25° C., placed on ice and quenched by the addition of 150 μl 10% trichloroacetic acid and 5% disodium pyrophosphate. After mixing, the entire contents of the quenched reaction mixtures were transferred to a pre-wetted Packard UniFilter filtration plate, aspirated and washed 6 times with 250 μl of ddH2O using the Packard Filtermate Harvester. Filtration plates were then air dried, supplemented with 40 μl of Microscint 20 scintillation fluid and the ^33P-labeled reaction products were quantified using the Packard TopCount scintillation counter.
Compounds were tested in three-fold serial dilutions and inhibitor concentrations to achieve 50% inhibition of enzyme activity (i.e., IC50) were derived from dose-reponse curves using SAS software (SAS Institute, Cary N.C.). A non-linear regression analysis based on the Hill equation was applied to the percent inhibition versus concentration data. In all cases, compound concentrations were verified by HPLC.

Row | IC50 | SMILES
1 | < 1000 nM | CCCc1cc(N2CCC(NCC(O)CCc3ccccc3)CC2)nc2sc(C(N)=O)c(N)c12 (stereo not drawn) [3-Amino-6-[4-(2-hydroxy-4-phenyl-butylamino)-piperidin-1-yl]-4-propyl-thieno[2,3-b] pyridine-2-carboxylic acid amide]
2 | < 1000 nM | CCCc1cc(N2CCC(NCC(O)c3ccc(-c4ccncc4)cc3)CC2)nc2sc(C(N)=O)c(N)c12 (stereo not drawn) [3-Amino-6-{4-[2-hydroxy-2-(4-pyridin-4-yl-phenyl)-ethylamino]-piperidin-1-yl}-4-propyl-thieno[2,3-b] pyridine-2-carboxylic acid amide]
3 | < 1000 nM | CCCc1cc(N2CCC(NCC(O)c3cccc(-c4ccccn4)c3)CC2)nc2sc(C(N)=O)c(N)c12 (stereo not drawn) [3-Amino-6-{4-[2-hydroxy-2-(3-pyridin-2-yl-phenyl)-ethylamino]-piperidin-1-yl}-4-propyl-thieno[2,3-b] pyridine-2-carboxylic acid amide]
4 | < 1000 nM | CCCc1cc(N2CCC(NCC(O)c3ccc(-c4cncnc4)cc3)CC2)nc2sc(C(N)=O)c(N)c12 (stereo not drawn) [3-Amino-6-{4-[2-hydroxy-2-(4-pyrimidin-5-yl-phenyl)-ethylamino]-piperidin-1-yl}-4-propyl-thieno[2,3-b] pyridine-2-carboxylic acid amide]
5 | < 1000 nM | CCCc1cc(N2CCC(NCC(O)CNc3ccccc3)CC2)nc2sc(C(N)=O)c(N)c12 (stereo not drawn) [3-Amino-6-[4-(2-hydroxy-3-phenylamino-propylamino)-piperidin-1-yl]-4-propyl-thieno[2,3-b] pyridine-2-carboxylic acid amide]
6 | < 1000 nM | CCCc1cc(N2CCC(NCC(O)c3ccc(-c4ccccn4)cc3)CC2)nc2sc(C(N)=O)c(N)c12 (stereo not drawn) [3-Amino-6-{4-[2-hydroxy-2-(4-pyridin-2-yl-phenyl)-ethylamino]-piperidin-1-yl}-4-propyl-thieno[2,3-b] pyridine-2-carboxylic acid amide]
7 | < 1000 nM | CCCc1cc(N2CCC(NC[C@@H](O)COc3ccccc3)CC2)nc2sc(C(N)=O)c(N)c12 [3-Amino-6-[4-((R)-2-hydroxy-3-phenoxy-propylamino)-piperidin-1-yl]-4-propyl-thieno[2,3-b] pyridine-2-carboxylic acid amide]
8 | < 1000 nM | NC(=O)c1sc2nc(N3CCC(NCC(O)c4ccc(-c5ccccn5)cc4)CC3)cc(C(F)(F)F)c2c1N (stereo not drawn) [3-Amino-6-{4-[2-hydroxy-2-(4-pyridin-2-yl-phenyl)-ethylamino]-piperidin-1-yl}-4-trifluoromethyl-thieno[2,3-b]pyridine-2-carboxylic acid amide]
9 | < 1000 nM | CCCc1cc(N2CCC(NCC(O)COc3cccc4ccccc34)CC2)nc2sc(C(N)=O)c(N)c12 (stereo not drawn) [3-Amino-6-{4-[2-hydroxy-3-(naphthalen-1-yloxy)-propylamino]-piperidin-1-yl}-4-propyl-thieno[2,3-b] pyridine-2-carboxylic acid amide]
10 | < 1000 nM | CCCc1cc(N2CCC(NCC(O)c3ccc(-c4ccccc4)cc3)CC2)nc2sc(C(N)=O)c(N)c12 (stereo not drawn) [3-Amino-6-[4-(2-biphenyl-4-yl-2-hydroxy-ethylamino)-piperidin-1-yl]-4-propyl-thieno[2,3-b] pyridine-2-carboxylic acid amide]
11 | < 1000 nM | CCCc1cc(N2CCC(NCC(O)Cc3cccc(C(N)=O)c3)CC2)nc2sc(C(N)=O)c(N)c12 (stereo not drawn) [3-Amino-6-{4-[3-(3-carbamoyl-phenyl)-2-hydroxy-propylamino]-piperidin-1-yl}-4-propyl-thieno[2,3-b] pyridine-2-carboxylic acid amide]

The next lines start with the molecule.

Row | SMILES | IC50
12 | CCCc1cc(N2CCC(NCC(O)Cc3ccc(C(N)=O)cc3)CC2)nc2sc(C(N)=O)c(N)c12 (stereo not drawn) [3-Amino-6-{4-[3-(4-carbamoyl-phenyl)-2-hydroxy-propylamino]-piperidin-1-yl}-4-propyl-thieno[2,3-b] pyridine-2-carboxylic acid amide] | < 1000 nM
13 | CCCc1cc(N2CCC(NCC(O)COc3ccc(F)cc3)CC2)nc2sc(C(N)=O)c(N)c12 (stereo not drawn) [3-Amino-6-{4-[3-(4-fluoro-phenoxy)-2-hydroxy-propylamino]-piperidin-1-yl}-4-propyl-thieno[2,3-b] pyridine-2-carboxylic acid amide] | < 1000 nM
14 | CCCc1cc(N2CCC(NCC(O)COc3ccc(C(F)(F)F)cc3)CC2)nc2sc(C(N)=O)c(N)c12 (stereo not drawn) [3-Amino-6-{4-[2-hydroxy-3-(4-trifluoromethyl-phenoxy)-propylamino]-piperidin-1-yl}-4-propyl-thieno[2,3-b] pyridine-2-carboxylic acid amide] | < 1000 nM
15 | CCCc1cc(N2CCC(NCC(O)C(=O)NCc3ccccc3)CC2)nc2sc(C(N)=O)c(N)c12 (stereo not drawn) [3-Amino-6-[4-(2-benzylcarbamoyl-2-hydroxy-ethylamino)-piperidin-1-yl]-4-propyl-thieno[2,3-b] pyridine-2-carboxylic acid amide] | < 1000 nM
16 | CCCc1cc(N2CCC(NCC(O)COc3ccc(C#N)cc3)CC2)nc2sc(C(N)=O)c(N)c12 (stereo not drawn) [3-Amino-6-{4-[3-(4-cyano-phenoxy)-2-hydroxy-propylamino]-piperidin-1-yl}-4-propyl-thieno[2,3-b] pyridine-2-carboxylic acid amide] | < 1000 nM
17 | CCCc1cc(N2CCC(NCCc3ccc(C(N)=O)cc3)CC2)nc2sc(C(N)=O)c(N)c12 [3-Amino-6-{4-[2-(4-carbamoyl-phenyl)-ethylamino]-piperidin-1-yl}-4-propyl-thieno[2,3-b] pyridine-2-carboxylic acid amide] | < 1000 nM
18 | NC(=O)c1sc2nc(N3CCC(NCC(O)c4ccc(-c5cccnc5)cc4)CC3)cc(C(F)(F)F)c2c1N (stereo not drawn) [3-Amino-6-{4-[2-hydroxy-2-(4-pyridin-3-yl-phenyl)-ethylamino]-piperidin-1-yl}-4-trifluoromethyl-thieno[2,3-b]pyridine-2-carboxylic acid amide] | < 1000 nM
19 | CCCc1cc(N2CCC(NCC(O)CNc3cccc(C(N)=O)c3)CC2)nc2sc(C(N)=O)c(N)c12 (stereo not drawn) [3-Amino-6-{4-[3-(3-carbamoyl-phenylamino)-2-hydroxy-propylamino]-piperidin-1-yl}-4-propyl-thieno[2,3-b] pyridine-2-carboxylic acid amide] | < 1000 nM
20 | NC(=O)c1sc2nc(N3CCC(NCC(O)c4ccc(-c5ccccc5)cc4)CC3)cc(C(F)(F)F)c2c1N (stereo not drawn) [3-Amino-6-[4-(2-biphenyl-4-yl-2-hydroxy-ethylamino)-piperidin-1-yl]-4-trifluoromethyl-thieno[2,3-b]pyridine-2-carboxylic acid amide] | < 1000 nM
21 | CCCc1cc(N2CCC(NCC(=O)Nc3cnc4ccccc4c3)CC2)nc2sc(C(N)=O)c(N)c12 | < 1000 nM
22 | CCCc1cc(N2CCC(NCC(=O)Nc3ccccc3C(N)=O)CC2)nc2sc(C(N)=O)c(N)c12 [3-Amino-6-(4-{[(2-carbamoyl-phenylcarbamoyl)-methyl]-amino}-piperidin-1-yl)-4-propyl-thieno[2,3-b] pyridine-2-carboxylic acid amide] | < 1000 nM
23 | NC(=O)c1sc2nc(N3CCC(NCCO)CC3)cc(C(F)(F)F)c2c1N [3-Amino-6-[4-(2-hydroxy-ethylamino)-piperidin-1-yl]-4-trifluoromethyl-thieno[2,3-b]pyridine-2-carboxylic acid amide] | < 1000 nM
24 | CCCc1cc(N2CCC(NCC(O)COc3cccc(OC)c3)CC2)nc2sc(C(N)=O)c(N)c12 (stereo not drawn) [3-Amino-6-{4-[2-hydroxy-3-(3-methoxy-phenoxy)-propylamino]-piperidin-1-yl}-4-propyl-thieno[2,3-b] pyridine-2-carboxylic acid amide] | < 1000 nM
